Reference: PMC12680756, “Reflectometric-based sensor arrays for the screening of kinase-inhibitor interactions and kinetic determination” (Analytical and Bioanalytical Chemistry, 2025)

Tests used:
FAK [1] = biological target: T1, FAK (Homo sapiens, UniProt Q05397); assay: Competitive MST assay, labeled STP-FAK complex titrated with another inhibitor; type: binding; conditions: labeled STP (40 µM) in complex with FAK (40 nM)
Method: Microscale thermophoresis was performed with the instrument Monolith NT.115, capillaries and MO.Control Software from Nanotemper Technologies, Munich, Germany. For each experiment, 16 capillaries were filled with a sample solution. […] The fluorescence of a specific area of each capillary was measured prior and during the thermophoresis experiment. For a better comparability, the fluorescence intensity obtained during the measurement was normalized to the fluorescence in each capillary recorded prior to the start of the experiment.

PKA in the protein mix = assay: 1-lambda reflectometry inhibitor screening on spotted sensor array, protein mix; type: binding, bovine; conditions: for order of binding affinity by color change of the spots (naked eye): protein mix 50 µg/mL, image after association, Fig. 5a; for increase of the average relative signal: protein mix, sensograms Fig. 5c, immobilized inhibitor spot
Method: (§1) • Manual spotting: the inhibitor dissolved in DMSO (1 mg/mL) was dropped to the measurement region on the transducer by pipetting. The immobilization process was as specified above. • Automatic spotting: the inhibitor dissolved in DMSO (1 mg/mL) was dropped to the measurement region on the transducer via the ceramic pin of the spotter. The droplets were dried under ambient conditions, and the process was repeated twice. After drying the last droplet, the transducer was prepared for measurements or stored at 4°C.
(§2) Screening was performed with 1-lambda reflectometry and transducers on which different inhibitors were spotted in the measurement area. The measurement protocols were the same as for the single assays.
One region per row was set as the reference ROI void of inhibitor.

FAK [2] = biological target: T1, FAK; assay: 1-lambda reflectometry inhibitor screening on spotted sensor array, FAK; type: binding; conditions: sensograms Fig. 5c; for order regarding the strength of the association: FAK as kinase sample
Method: as §1, §2

[3] = biological target: protein mix containing cAMP-dependent protein kinase (PKA) (Bos taurus, UniProt P00517); assay: 1-lambda reflectometry single assays, protein mix flushed over immobilized inhibitor, kinetic evaluation; conditions: read-out: dissociation rate constant kd

T1 sequence (Q05397 410-689, species assumed): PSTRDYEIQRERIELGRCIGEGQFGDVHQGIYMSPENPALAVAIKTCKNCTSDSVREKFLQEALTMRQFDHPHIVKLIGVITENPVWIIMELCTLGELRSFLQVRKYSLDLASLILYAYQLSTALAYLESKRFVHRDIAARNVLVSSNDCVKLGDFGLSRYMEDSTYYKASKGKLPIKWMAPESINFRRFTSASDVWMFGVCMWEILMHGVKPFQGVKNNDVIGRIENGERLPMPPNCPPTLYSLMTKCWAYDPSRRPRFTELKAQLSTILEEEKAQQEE

| order of binding affinity by color change of the spots (naked eye) (PKA in the protein mix) | koff [3] [s⁻¹] | increase of the relative signal (FAK [2]; FAK, immobilized inhibitor spot) [%] | Structure (SMILES) | shape of dose-response curve in competitive MST (FAK [1]) | order regarding the strength of the association (FAK [2]) | increase of the average relative signal (PKA in the protein mix) [%] |
| --- | --- | --- | --- | --- | --- | --- |
| – | – | – | Cl.Cn1cc(C2=C(c3c4n(c5ccccc35)CCC(CN)C4)C(=O)NC2=O)c2ccccc21 (centres unmarked) [BisX, Bisindolylmaleimide X] | the slope was inversed compared to the one of the direct assays | – | – |
| strongest color change | – | – | O=S(=O)(c1cccc2cnccc12)N1CCCNCC1 [fasudil] | – | STP > imatinib > fasudil > fragment2 > fragment1 | 1.7 |
| imatinib > fragment2 > fragment1 > STP | 0.007 | – | COc1ccc(-c2cc(N)[nH]n2)cc1Cl [fragment1] | – | STP > imatinib > fasudil > fragment2 > fragment1 | – |
| imatinib > fragment2 > fragment1 > STP | – | – | Nc1ncnc(Nc2ccc(F)cc2)n1 [fragment2] | – | STP > imatinib > fasudil > fragment2 > fragment1 | – |
| imatinib > fragment2 > fragment1 > STP | – | 0.13 | Cc1ccc(NC(=O)c2ccc(CN3CCN(C)CC3)cc2)cc1Nc1nccc(-c2cccnc2)n1 [imatinib] | – | STP > imatinib > fasudil > fragment2 > fragment1 | 0.84 |

| Structure (SMILES) | order of binding affinity by color change of the spots (naked eye) (PKA in the protein mix) | koff [3] [s⁻¹] | increase of the relative signal (FAK [2]; FAK, immobilized inhibitor spot) [%] | shape of dose-response curve in competitive MST (FAK [1]) | order regarding the strength of the association (FAK [2]) | increase of the average relative signal (PKA in the protein mix) [%] |
| --- | --- | --- | --- | --- | --- | --- |
| CN[C@@H]1C[C@H]2O[C@@](C)([C@@H]1OC)n1c3ccccc3c3c4c(c5c6ccccc6n2c5c31)C(=O)NC4 [STP, Staurosporine] | imatinib > fragment2 > fragment1 > STP | – | – | – | – | – |
